Consider two compounds from US20040102454A1, “Phenylahistin and the phenylahistin analogs, a new class of anti-tumor compounds” (priority 1998, published 2004).

Converted amounts (≈) assume the structure as drawn. “Also recorded” adds a separate entry of the source.

The test system of assay [1] is A-549 cells derived from human lung cancer. The assay is described as follows: Cell proliferation inhibition, MTT (Example 2). The format is cell-based. Particulars: A549, read-out: IC50 (concentration that inhibited cell proliferation 50%), A-549, 48 hours. On the procedure:
Into each well of a 96-well microtiter plate, 100 μl of A-549 cells derived from human lung cancer prepared to 10^5 cells/ml in a culture medium obtained by adding 10% bovine fetus serum to EMEM culture medium (Nissui Seiyaku Co., Ltd.) having antitumor effect against A-549 cells derived from human lung cancer was placed. Methanol solution of racemic NSCL-96F037 obtained as in Example 1 was added to the wells of the uppermost row, specimens were diluted by the half-log dilution method and added, and the plate was incubated in a carbon dioxide gas incubator at 37° C. for 48 hours. The result was added in lots of 10 μl with MTT reagent (3-(4,5-dimethyl-2-thiazole)-2,5-diphenyl-2H-tetra bromide) (1 mg/ml•PBS), followed by incubation in a carbon dioxide gas incubator at 37° C. for 6 hours. The culture medium was discarded and the crystal of produced in the cells was dissolved in 100 μl/well of dimethylsulfoxide. Absorption of 595 nm light was then measured with a microplate reader.

For assay [2], the system named is Cell strain A431. The assay is described as follows: Cell cycle inhibiting activity, flow cytometer and microscopic observation. The format is cell-based, human. The procedure: Cell strain A431 derived from […] was used. EMEM culture medium containing 10% bovine fetus serum and 1% MEM nonessential amino acid solution (SIGMA M2025) was used to incubate A431 cells at 37° C. in an incubator saturated with 5% carbon dioxide gas and water vapor. The refined specimen of racemic phenylahistin obtained in EXAMPLE 1 was added to the cells in the log-growth phase and progression of the cell cycle was analyzed by flow cytometer and microscopic observation. The results, shown in Table 1, indicate that this phenylahistin was useful as a cell cycle inhibitor.
In general terms: In flow cytometry, cells or beads pass a laser one at a time.

Assay [3] concerns Bacillus natto. The assay is described as follows: Antimicrobial test, filter paper agar flat plate method. Particulars: 100 μg of specimen on 9 mm filter paper. Type of assay: cell-based. On the procedure: (§1) Using colibacillus strain JM109 as a gram-negative bacterium, Bacillus natto as a […] and Aspergillus niger IFO6341 as a mold, the following antimicrobial test was conducted by the filter paper agar flat plate method, wherein 100 μg of specimen was placed on 9 mm filter paper, dried in air, and standard agar culture medium was used for bacteria and potato dextrose agar culture medium for mold. […] An antimicrobial test was further conducted by the liquid culture medium dilution method using the yeast strain Saccharomyces cerevisise HF7C.

Assay [4] relates to colibacillus strain JM109. The description is as above. Type of assay: cell-based. Particulars: 100 μg of specimen on 9 mm filter paper. On the procedure: as §1
In assay [5] the test system is Aspergillus niger IFO6341. The description is as above. Particulars: 100 μg of specimen on 9 mm filter paper. The format is cell-based. On the procedure:
as §1

Assay [6] concerns P388 murine leukemia cells. The assay is described as follows: Cytotoxic effects of the phenylahistin enantiomers (Example 8). Type of assay: cell-based. The note with it: Mus musculus, (−) 92.2% e.e., (+) 97.8% e.e. The source says: The cytotoxic effects of the enantiomers of phenylahistin on P388 murine leukemia cells were examined. […] Judging from the content of (−)-phenylahistin in (+)-phenylahistin, (+)-phenylahistin was considered to have relatively low cytotoxicity to P388 cells.

For assay [7], the system named is A549 cells (human lung carcinoma). The assay is described as follows: A549 proliferation, Alamar Blue assay. The format is cell-based. The procedure: Exponentially growing A549 cells were seeded into 96-well tissue culture plates (2×10^3 cells/100 μl/well) and cultured for 16 hours. (−)-PLH or CLC was then added to each well at various concentrations, and the cells were cultured for an additional 48 hours. Live cells were counted using Alamar Blue™ from BioSource International (Camarillo, Calif.) as described in Ahmed, S. A., J. Immunol. Methods, (1994), 170, 211-24.

The subject of assay [8] is bovine brain tubulin. The assay is described as follows: [^3H]VLB binding competition assay. The note with it: DEAE-cellulose filter method; listed as (−)-PLH.
In assay [9] the test system is phosphocellulose-purified tubulin. The assay is described as follows: Polymerization of purified tubulin (turbidity). The format is biochemical, bovine. The procedure:
Microtubule protein was prepared from bovine brain tissue by two cycles of assembly and disassembly according to the method of Tiwari, S. C. et al. Anal. Biochem, (1993), 215, 96-103. Tubulin was purified from microtubule protein by phosphocellulose chromatography see Algaier, J. et al. Biochim. Biophys. Acta, (1988), 954, 235-43, and tubulin purity was evaluated by polyacrylamide gel electrophoresis, as in Laemmli, U.K., Nature, (1970), […], 680-85. […] Protein concentrations were determined using the Coomassie® Protein Assay Reagent from Pierce (Rockford, Ill.).
Polymerization of microtubule protein was monitored by an increase in turbidity at 37° C. in microtubule assembly buffer containing 100 mM MES, 0.5 mM MgCl2, 1 mM EGTA and 1 mM GTP. See Johnson, K. A. et al., J. Mol. Biol., (1977), 117, 1-31. Polymerization of purified tubulin was measured using the same method except the microtubule assembly buffer contained 4 M glycerol. See Lee, J. C. et al., Biochemistry, (1975), 14, 5183-87. Microtubule protein and tubulin polymerization was initiated by a temperature shift from 0° C. to 37° C. and turbidity was measured on a DU-20 thermocontrolled spectrophotometer from Beckman (Fullerton, Calif.) at 360 nm. Drugs were dissolved in dimethyl sulfoxide (DMSO), which was used in all experiments at a final concentration of 2% (v/v).

The subject of assay [10] is Microtubule protein from bovine brain. As to the kind of experiment: Microtubule protein polymerization assay (turbidity). Type of assay: biochemical.

For the compound `C=CC(C)(C)c1[nH]cnc1/C=C1\NC(=O)[C@H](Cc2ccccc2)NC1=O` (racemic) [PLH, phenylahistin], the IC50 in assay [1] came out at 0.3 µg/mL (≈ 0.856 µM). Also, the “Inhibiting effect (cell cycle)” value was “Absent (Absent: The cell cycle stopped at the G2/M phase in less than 10% of the cells.)” in assay [2] (Concentration 0.5 μg/ml); “Absent (Absent: The cell cycle stopped at the G2/M phase in less than 10% of the cells.)” in assay [2] (Concentration 1.0 μg/ml); “Slight (Slight: The cell cycle stopped at the G2/M phase in not less than 10% and less than 50% of the cells.)” in [2] (Concentration 2.0 μg/ml); “Slight (Slight: The cell cycle stopped at the G2/M phase in not less than 10% and less than 50% of the cells.)” in [2] (Concentration 4.0 μg/ml); “Present (Present: The cell cycle stopped at the G2/M phase in not less that 50% of the cells.)” in [2] (Concentration 8.0 μg/ml); “Present (Present: The cell cycle stopped at the G2/M phase in not less that 50% of the cells.)” in [2] (Concentration 32.0 μg/ml). Further, the antimicrobial activity entry in [3], in [4] and in assay [5] was “No antimicrobial activity” in each case.

`C=CC(C)(C)c1[nH]cnc1/C=C1\NC(=O)[C@H](Cc2ccccc2)NC1=O` [(−)-phenylahistin]: the IC50 in assay [6] came out at 350 nM; in assay [7] (Homo sapiens, A549, read-out: 50% inhibitory concentration (IC50), proliferation of A549 cells, 48 hours), 300 nM; in assay [10] (microtubule protein 1.5 mg/ml (Table 4), read-out: IC50 for Microtubule Protein Polymerization) it was 25 µM. Further, the “fold less potent than CLC, A549 proliferation” value in assay [7] (versus CLC under the assay conditions) is 5 fold. In addition, the “effect on [^3H]VLB binding to tubulin” value in assay [8] is listed as “not inhibited; also recorded: slightly enhanced”. Also, in assay [9], the “inhibition of tubulin polymerization compared with CLC” value is recorded as “as effective as CLC”. For the same compound, in assay [10] (80 μM), the “polymerization of microtubule protein” value is on record as “completely inhibited”. Moreover, the “turbidity increase at high concentration” value in [10] (concentrations up to 200 μM) is reported as “did not increase the turbidity”.
